Patent publication USRE48253E1, “Methotrexate adjuvants to reduce toxicity and methods for using the same” (Tosk, Inc., priority 2008, dated 2020)

How the values were obtained:
CCRF-CEM human tumors = assay: Mouse Study IV: xenograft with CCRF-CEM implants; assay type: in vivo, SCID mice
Experimental: In this study, n=10 SCID mice per dose group were treated with CCRF-CEM human tumors and the tumors allowed to grow to a size of approximately 100 mg. Then the animals were treated by intraperitoneal (ip) injection with either control 20% DMSO/80% PBS (1×/day)×5 days (Group 1), MTX 7.5 mg/kg/injection (1×/day)×5 days (Group 2) or MTX 7.5 mg/kg/inj. (1×/day)×5 days+TK-112690 30 mg/kg/inj.±3 hrs (group 3). The Figure provides tumor sizes in each of the 3 groups on Day 27 of the study.
A xenograft study was performed to analyze the effect of TK-112690. administration on the in vivo efficacy of MTX against a human cancer. Human CCRF-CEM (T-ALL) cells were implanted subcutaneously into SCID mice. Tumor volumes were recorded on a regular basis, and once tumors had become established, treatment was given. […] All treatments were given ip, and TK-112690 was give 3 hours prior to and 3 hours after MTX administration.

[1] = tested on: Wild-type (Oregon-R) Drosophila melanogaster; assay: Fly Study II: MTX lethality in wild-type flies; assay type: in vivo; details: for MTX dose with lethal effects in wild-type flies: orally in food admix, scored 15 days after initiation
Experimental: (§1) Embryos of UPase knockout (19519) Drosophila melanogaster were orally exposed to a dose range of MTX doses in food admix. Embryos of Wild-type (Oregon-R) were orally exposed to the same dose range of MTX in presence and absence of 0.04 mg TK-112690. Scoring was based on life or death 15 days after initiation of MTX exposure. […] Wild-type D. melanogaster are sensitive to lethal effects of ≥0.1 mg MTX.
(§2) The aim of this study was to evaluate the lethal effects of a range (0.001, 0.01, 0.05, 0.1, 0.2, 0.4 mg) of doses of orally fed MTX in wild-type (Ore-R) and UPase mutant Drosophila melanogaster. Embryos of UPase knockout (19519) Drosophila melanogaster were orally exposed to a dose range of MTX (0.001, 0.01, 0.05, 0.1, 0.2, 0.4 mg) in food admix. Embryos of Wild-type (Oregon-R) were orally exposed to the same dose range of MTX in presence and absence of 0.04 mg TK-112690. Scoring was based on life or death 15 days after initiation of MTX exposure.

Drosophila melanogaster = assay: Fly Study I: protection from MTX-induced lethality; assay type: in vivo
Experimental: In this study, Drosophila melanogaster eggs (50 eggs per vial) were treated with either 0.005 mg TK-112690+0.4 mg MTX (Group 1), 0.01 mg TK-112690+0.4 mg MTX (Group 2), 0.04 mg TK-112690+0.4 mg MTX (Group 3), 0.1 mg TK-112690+0.4 mg MTX (Group 4), 0.4 mg MTX alone (Group 5) or saline blank (Group 6). Two vials of eggs for each dose group were evaluated for viability (viable flies plus pupae).
The efficacy of cancer chemotherapy can be improved if agents are available to reduce the adverse events associated with treatment with cytotoxic agents. To this end, Drosophila melanogaster (commonly know as the fruit fly) is an ideal organism to screen chemical compounds for such side-effect-reducing agents. This study is aimed at finding a dose of a 2,2′-anhydropyrimidine test article that protects against MTX-induced lethality in insects.
Increasing amounts of a 2,2′-anhydropyrimidine test article (typically 0.03 to 0.1 mg) are mixed in an aqueous solution with 0.3 (or 0.4) mg MTX. Four milliliters (mL) of a 2,2′-anhydropyrimidine test article+MTX solutions are added to an appropriate amount of instant fly medium. Fruit fly eggs are added to a 2,2′-anhydropyrimidine test article+MTX treated medium and incubated for up to 31 days. After the 31 day incubation, each assay is scored by the number of mature fly and pupae per vial.
The assays are set up in clear sterile polystyrene narrow diameter vials from Applied Scientific (Hampton, N.H.). Vials are stored in trays and incubated in a darkened 25° C. incubator.
Reagents and materials used are: 50 mg/mL MTX in H2O (pH 8), 20 mg/mL of the 2,2′-anhydropyrimidine test article in H2O, water, sterile polystyrene narrow diameter vials from Applied Scientific, Instant Drosophila Food Medium, Oregon-R Drosophila melanogaster, 25° C. incubator, and 15 mL polystyrene conical tubes
Each assay is performed in a separate fly vial. […] Pre-measured amounts of instant drosophila medium are added to each assay to achieve optimal hydration level. […] Assays are scored by the number of dead pupae or adult flies per vial.

[2] = tested on: UPase knockout (19519) Drosophila melanogaster; assay: Fly Study II: MTX lethality in UPase knockout flies; assay type: in vivo
Experimental: as §1, §2

SMILES | tumor volume day 27, MTX+TK-112690 vs MTX (CCRF-CEM human tumors; TK-112690 30 mg/kg ip 3 hours prior to and after MTX 7.5 mg/kg) | methotrexate dose from whose lethality protection is provided ([1]; 0.04 mg TK-112690) [mg] | protection of wild-type flies from lethal effects of MTX ([1]; 0.04 mg TK-112690, MTX 0.001-0.4 mg) | protection against MTX-induced lethality in the Fly model (Drosophila melanogaster; with MTX 0.4 mg, TK-112690 0.005 to 0.1 mg) | added protection from methotrexate toxicities in UPase mutant flies ([2]; TK-112690 added to dose range of methotrexate) | tumor volume day 27, treatment vs saline (CCRF-CEM human tumors; MTX 7.5 mg/kg/injection ip (1×/day)×5 days) | MTX dose with lethal effects in wild-type flies [1] [mg] | MTX dose with lethal effects in wild-type flies ([1]; listed as Methotrexate) [mg] | effect of MTX on lethality in the flies (Drosophila melanogaster; 0.4 mg MTX alone vs saline) | lethal effects of MTX in UPase knockout flies ([2]; MTX 0.001-0.4 mg orally)
Cc1cn2c(nc1=O)O[C@H]1[C@H](O)[C@@H](CO)O[C@H]12 [TK-112690, 2,2′-anhydro-5-methyluridine] | not significantly different | ≤ 0.4 | resistant to the lethal effects | highly significant | does not provide added protection | – | – | – | – | –
CN(Cc1cnc2nc(N)nc(N)c2n1)c1ccc(C(=O)N[C@@H](CCC(=O)O)C(=O)O)cc1 [MTX, N-[4-[[(2,4-diamino-6-pteridinyl)methyl]methylamino]benzoyl]-L-glutamic acid, reference compound] | – | – | – | – | – | significantly different | ≥ 0.1 | 0.1 | highly significant | resistant to lethal effects
